Experimental data: patent publication US20200157086A1, “BENZAMIDE COMPOUNDS AND THEIR USE AS HERBICIDES” (BASF SE, priority 2017, published 2020)

Experiments:
Test in all cases: post-emergence greenhouse test of herbicidal activity
Format in all cases: in vivo
Details in all cases: application rate 250 g/ha, 100 = complete destruction, 0 = no damage
[1] = system: CHEAL (Chenopodium album)
Text: (§1) The seeds of the test plants were sown separately for each species. For the post-emergence treatment, the test plants were first grown to a height of 3 to 15 cm, depending on the plant habit, and only then treated with the active ingredients which had been suspended or emulsified in water. For this purpose, the test plants were either sown directly and grown in the same containers, or they were first grown separately as seedlings and transplanted into the test containers a few days prior to treatment. Depending on the species, the plants were kept at 10-25° C. or 20-25° C., respectively. The test period extended over 2 to 4 weeks. During this time, the plants were tended, and their response to the individual treatments was evaluated. Evaluation was carried out using a scale from 0 to 100. 100 means no emergence of the plants, or complete destruction of at least the aerial moieties, and 0 means no damage, or normal course of growth. A good herbicidal activity is given at values of at least 70 and a very good herbicidal activity is given at values of at least 85. At an application rate of 250 g/ha the following compounds were tested in post-emergence tests against: […]

[2] = system: AMARE (Amaranthus retroflexus)
Text: as §1

[3] = system: ALOMY (Alopecurus myosuroiedes)
Text: as §1

[4] = system: ECHCG (Echinocloa crus-galli)
Text: as §1

SMILES: CCN(C)C(=O)Nc1c(Cl)ccc(C(=O)Nc2nnnn2C)c1C [compound 3, 4-chloro-3-[[ethyl(methyl)carbamoyl]amino]-2-methyl-N-(1-methyltetrazol-5-yl)benzamide]
- herbicidal activity against CHEAL, scale from 0 to 100 [1]: 100
- herbicidal activity against AMARE, scale from 0 to 100 [2]: 100
- herbicidal activity against ALOMY, scale from 0 to 100 [3]: 98
- herbicidal activity against ECHCG, scale from 0 to 100 [4]: 100
